Read-outs that look alike come from different tables or passages of the source.
Columns and labels:
[1] = Alzheimer's disease, Phase IIb; cited from earlier work
[2] = cited from earlier work
[3] = test system: PMA differentiated THP-1 cells; assay: western blotting of β-catenin and GSK-3 in PMA differentiated THP-1 cells; type: cell-based, human; settings: for expression of β-catenin protein: PMA differentiated THP-1, 0.5-25 μM, 5 hours; for expression of GSK-3: PMA differentiated THP-1, higher concentrations, e.g., 10 μM and 25 μM
Method: RAW 264.7 cells were cultured in RPMI 1640 medium supplemented with 10% FBS and 0.5% penicillin-streptomycin stabilized solution. THP-1 cells were cultured and differentiated into macrophages using phorbol 12-myristate 13-acetate (i.e., PMA). More specifically, THP-1 cells were cultured in RPMI-1640 10% FBS supplemented with 0.05 mM 2-mercaptoethanol. For differentiation to a macrophage phenotype, THP-1 cells were stimulated with PMA (50 ng/mL) for 24 hours. Differentiated THP-1 cells were washed with fresh media twice before incubation for 24 more hours at 37° C., 5% CO2 in a humidified incubator. The monolayer was then treated with ox-LDL or native LDL (both at either 50 or 100 μg/mL) and LPS (10 ng/mL) for 4 hours. Undifferentiated THP-1 cells were cultured and treated under similar conditions were used as a control.
(§1) To test the ability of COB-187 and COB-152 to increase β-catenin levels, RAW 264.7 macrophages and PMA differentiated THP-1 cells were treated with COB-152 or COB 187 at different concentrations or 0.1% (v/v) DMSO solvent for 5 hours. Following treatment, protein was extracted and probed for β-catenin and total GSK-3 via western blotting.
(§2) More specifically, RAW 264.7 cells and PMA differentiated THP-1 cells were treated with varying concentrations of COB-187 or COB-152 dissolved in culture media containing 0.1% (v/v) dimethylsulfoxide (i.e., DMSO) solvent or with 0.1% (v/v) DMSO alone for 5 or 24 hours. After incubation, […] protein was extracted from the cells and quantified. More specifically, culture supernatant was collected and store at −80° C. until further use. The cells were lysed in 10 mM Tris HCl at pH 7.5, 150 mM NaCl, and 1% nonyl phenoxypolyethoxylethanol-40, containing a cocktail of protease inhibitors (Roche, Mannheim, Germany). Insoluble material was pelleted and the supernatant containing total protein as well as the culture supernatant was quantified using a Micro BCA protein kit. […] of protein was then resolved onto a denaturing gel, transferred to a nitrocellulose membrane, and immunoblotted with antibodies against GSK-3 and β-catenin. Signals were detected using the Li-Cor Odyssey Infrared Imaging System (Lincoln, Nebr.). Membranes were stripped and reprobed with primary antibody for β-actin as a loading control. All experiments were performed at least thrice in both RAW 264.7 and PMA differentiated THP-1 cells, and in duplicates.

[4] = test system: RAW 264.7 murine macrophages; assay: quantitative RT-PCR of β-catenin mRNA in RAW 264.7 cells; type: cell-based; settings: RAW 264.7, 4, 20 or 40 μM, 5 hours
Method: RAW 264.7 cells were treated with varying concentrations of COB-187, COB-152 or 0.1% (v/v) DMSO solvent alone for 5 or 24 hours. Following treatment, RNA was extracted from the cells and reverse transcribed. More specifically, total RNA was isolated using RNeasy plus mini kit according to the manufacturer's protocol and quantified using a Nanodrop 2000C Spectrophotometer. First-strand cDNA was synthesized from total RNA using cDNA Reverse Transcription Kit according to the manufacturer's protocol. Quantitative RT-PCR was performed using Taqman Gene Expression Assay (Life Technologies, Waltham, Mass.) and mouse primers for GAPDH and β-catenin. Relative gene expression was determined by normalizing with GAPDH using the comparative Ct method. All experiments were performed at least thrice in duplicates.

[5] = test system: PMA differentiated THP-1 human macrophages stimulated with Aβ(1-42) peptides; assay: Aβ(1-42)-induced inflammatory cytokines in human macrophages (RT-PCR, ELISA); type: cell-based; settings: Aβ(1-42) 10 μM, 5 hours; for concentration at which IL-1β protein production was decreased: ELISA; for IFN-β mRNA expression / IL-1α mRNA expression: dose-dependent
Method: (§3) THP-1 cells were differentiated using PMA (50 ng/mL) as previously described and stimulated with either LPS (10 ng/mL) or […] human Aβ(1-42) peptides alone, or in combination with COB-152, COB-187 or 0.1% DMSO solvent for 5 hours. Following incubation, the supernatant was collected and stored at −80° C. until assayed for IL-6, TNF-α, and IL-1β protein by ELISA, whereas RNA extracted from the cells was reverse transcribed and subjected to quantitative RT-PCR for quantification of IL-6, TNF-α, IL-1α, IL-1, and IFN-β mRNA. All experiments were performed at least thrice and in duplicates.
(§4) RNA extracted from differentiated THP-1 cells treated as previously described was reverse transcribed to cDNA and subjected to quantitative RT-PCR. Relative IL-6, TNF-α, IL-1α, IL-1, and IFN-β gene expression was determined by normalizing with Hprt1 using the comparative Ct method. Commercially available cytokine ELISA kits (BD Biosciences, Burlington, N.C.) were used to quantify the levels of secreted IL-6, TNF-α, and IL-1 protein in the supernatant obtained from differentiated THP-1 cells treated with either LPS (10 ng/mL) or 10 μM human Aβ(1-42) peptides alone, or in combination with COB-152, COB-187 or 0.1% DMSO solvent. The ELISA was performed according to the manufacturer's protocol. The supernatant was diluted with the assay diluent at different ratios as shown in the TABLE 4 below for IL-6, TNF-α, and IL-1β. All samples were tested in duplicates and the results were expressed as Mean±SD of the cytokine concentration (pg/mL). All results presented were corrected for dilution factor.

[6] = test system: RAW 264.7 murine macrophages; assay: western blotting of β-catenin and GSK-3 in RAW 264.7 macrophages; type: cell-based; settings: for expression of β-catenin protein: RAW 264.7, 0.5-25 μM, 5 hours; for expression of GSK-3: RAW 264.7, higher concentrations, e.g., 10 μM and 25 μM
Method: as §1, §2

[7] = test system: non-GSK-3 kinases; assay: kinase screen, non-GSK-3 kinases; settings: COB-152 at 2 μM; COB-187 at 1 μM; FIG. 3
[8] = test system: PMA differentiated THP-1 human macrophages stimulated with LPS; assay: LPS-induced inflammatory cytokines in human macrophages (RT-PCR, ELISA); type: cell-based; settings: LPS 10 ng/mL, 5 hours
Method: as §3, §4

[9] = test system: LPS induced RAW macrophages; assay: LPS-induced IL-6 mRNA in RAW 264.7 macrophages; type: cell-based; settings: LPS stimulated murine macrophages, 0.1, 1 or 10 μM
Method: RAW 264.7 were stimulated with either LPS (10 ng/mL) alone, or in combination with COB-152, COB-187 or 0.1% DMSO solvent for 5 hours. Following incubation, RNA was extracted from the cells. Quantitative RT-PCR was used to quantify expression of mRNA.

[10] = molecular target: GSK-3β (Homo sapiens, UniProt P49841); assay: fluorescence-based molecular assay of GSK-3β activity; settings: 60 minutes at room temperature, Ser/Thr substrate and ATP
Description: (§5) Subsequently, the solution was developed and the fluorescence was read to infer the activity of the protein.

[11] = molecular target: GSK-3α (Homo sapiens, UniProt P49840); assay: fluorescence-based molecular assay of GSK-3α activity; settings: 60 minutes at room temperature, Ser/Thr substrate and ATP
Description: as §5

[12] = test system: GSK-3α and GSK-3β; assay: kinase screen, GSK-3; settings: COB-152 at 2 μM; COB-187 at 1 μM; FIG. 3

Chain of GSK-3α (P49840 whole entry, species assumed): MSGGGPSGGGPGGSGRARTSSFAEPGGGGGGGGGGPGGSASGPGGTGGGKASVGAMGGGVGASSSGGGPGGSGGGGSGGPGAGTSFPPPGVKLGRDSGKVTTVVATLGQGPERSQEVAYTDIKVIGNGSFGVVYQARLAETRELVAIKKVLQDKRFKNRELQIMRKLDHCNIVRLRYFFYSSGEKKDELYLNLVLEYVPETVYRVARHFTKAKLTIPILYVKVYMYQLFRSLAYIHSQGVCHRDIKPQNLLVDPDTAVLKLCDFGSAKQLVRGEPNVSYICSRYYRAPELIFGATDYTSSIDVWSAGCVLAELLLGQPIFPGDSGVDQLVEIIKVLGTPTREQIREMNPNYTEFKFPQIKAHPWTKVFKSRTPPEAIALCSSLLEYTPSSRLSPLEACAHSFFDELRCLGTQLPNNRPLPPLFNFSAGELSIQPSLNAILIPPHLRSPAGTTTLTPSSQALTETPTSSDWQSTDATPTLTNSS
Chain of GSK-3β (P49841 whole entry, species assumed): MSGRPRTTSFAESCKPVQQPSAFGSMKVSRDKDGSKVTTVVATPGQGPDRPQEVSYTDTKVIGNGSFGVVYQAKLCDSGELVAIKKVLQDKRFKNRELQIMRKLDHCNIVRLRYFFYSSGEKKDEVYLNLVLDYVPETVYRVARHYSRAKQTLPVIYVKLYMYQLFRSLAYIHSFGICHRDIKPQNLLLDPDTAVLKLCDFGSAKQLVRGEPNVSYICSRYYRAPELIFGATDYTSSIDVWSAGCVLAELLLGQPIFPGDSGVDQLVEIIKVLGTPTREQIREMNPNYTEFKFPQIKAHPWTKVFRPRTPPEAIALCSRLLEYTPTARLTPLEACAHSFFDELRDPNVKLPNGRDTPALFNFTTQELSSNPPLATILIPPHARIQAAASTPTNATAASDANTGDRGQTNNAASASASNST

SMILES | expression of β-catenin protein [3] | expression of GSK-3 [3] | expression of β-catenin mRNA [4] | IL-6 production (mRNA and protein) [5] | TNF-α production (mRNA and protein) [5] | concentration at which IL-1β protein production was decreased [5] | IFN-β mRNA expression [5] | IL-1α mRNA expression [5] | expression of β-catenin protein [6] | expression of GSK-3 [6] | effect on non-GSK-3 kinases, such as the cyclin dependent protein kinases [7] | IL-1α mRNA expression [8] | IL-6 production (mRNA and protein) [8] | TNF-α production (mRNA and protein) [8] | other results
O=c1sn(-c2cccc3ccccc23)c(=O)n1Cc1ccccc1 [tideglusib] |  |  |  |  |  |  |  |  |  |  |  |  |  |  | primary endpoint [1]: primary endpoint was not achieved; progression of global cerebral atrophy compared to placebo ([2]; analysis of a sub-set of patients): reduced progression of global cerebral atrophy; primary endpoint ([2]; progressive supranuclear palsy, phase II): did not meet is primary endpoint
OC1(c2ccccc2)CSC(=S)N1Cc1cccnc1 (stereo not shown) [COB-152] | increased expression | may also be affected | did not alter | dose-dependent decrease | dose-dependent decrease | ≥ 25 µM | inhibited | inhibited | increased in a dose-dependent manner | may also be affected | little effect | inhibited | dose-dependent decrease | dose-dependent decrease | concentration at which IL-1β protein production was decreased ([8]; ELISA): ≥ 50 µM; IL-6 mRNA production [9]: dose dependently inhibited
OC1(c2ccccc2)CSC(=S)N1Cc1ccncc1 (stereo not shown) [COB-187] | increased expression | may also be affected | did not alter | dose-dependent decrease | dose-dependent decrease | ≥ 10 µM | inhibited | inhibited | increased in a dose-dependent manner | may also be affected | little effect | inhibited | dose-dependent decrease | dose-dependent decrease | IC50, inhibition of GSK-3β activity [10]: nanomolar range; IC50, inhibition of GSK-3α activity [11]: nanomolar range; activity of GSK-3α/β in kinase screen [12]: inhibit; IL-1β protein production ([8]; ELISA): dose-dependent decrease

— US20170202818A1, “METHODS AND COMPOSITIONS TO MODIFY GSK-3 ACTIVITY” (Ohio University, priority 2014, published 2017)
